Test results from patent US8802597B2, “Herbicidal pyrimidines” (E I du Pont de Nemours and Company, priority 2003, dated 2014).

Experiments:
Assay in all cases: Test C pre/postemergence
Format in all cases: in vivo
[1] = tested on: Surinam grass (Brachiaria decumbens); conditions: for Surinam Grass plant response rating: scale 0 to 100 (0 no effect, 100 complete control)
How it was run: (§1)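 Greenhouse herbicide screen, visual readout. Compound in solvent/surfactant applied preemergence at planting or postemergence to 1- to 4-leaf plants; assessed at 12–14 days on a 0–100 control scale.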

[2] = tested on: bermudagrass (Cynodon dactylon)
How it was run: as §1

[3] = tested on: cocklebur (Xanthium strumarium); conditions: for Cocklebur plant response rating: scale 0 to 100 (0 no effect, 100 complete control)
How it was run: as §1

[4] = tested on: common (oilseed) sunflower (Helianthus annuus); conditions: Preemergence
How it was run: as §1

[5] = tested on: common ragweed (Ambrosia elatior); conditions: for Ragweed plant response rating: scale 0 to 100 (0 no effect, 100 complete control)
How it was run: as §1

[6] = tested on: corn (Zea mays); conditions: for Corn plant response rating: scale 0 to 100 (0 no effect, 100 complete control)
How it was run: as §1

[7] = tested on: eastern black nightshade (Solanum ptycanthum); conditions: Preemergence
How it was run: as §1

[8] = tested on: johnsongrass (Sorghum halepense); conditions: for Johnsongrass plant response rating: scale 0 to 100 (0 no effect, 100 complete control)
How it was run: as §1

[9] = tested on: kochia (Kochia scoparia); conditions: for Kochia plant response rating: scale 0 to 100 (0 no effect, 100 complete control)
How it was run: as §1

[10] = tested on: morningglory (Ipomoea coccinea); conditions: for Morningglory plant response rating: scale 0 to 100 (0 no effect, 100 complete control)
How it was run: as §1

[11] = tested on: pigweed (Amaranthus retroflexus); conditions: for Pigweed plant response rating: scale 0 to 100 (0 no effect, 100 complete control)
How it was run: as §1

[12] = tested on: woolly cupgrass (Eriochloa villosa); conditions: for Cupgrass, Woolly plant response rating: scale 0 to 100 (0 no effect, 100 complete control)
How it was run: as §1

[13] = Preemergence, 31 g ai/ha, scale 0 to 100, 0 no effect, 100 complete control
[14] = Preemergence, 62 g ai/ha, scale 0 to 100, 0 no effect, 100 complete control
[15] = Preemergence, 125 g ai/ha, scale 0 to 100
[16] = Preemergence, 250 g ai/ha, scale 0 to 100
[17] = 31 g ai/ha, scale 0 to 100, 0 no effect, 100 complete control
[18] = 62 g ai/ha, scale 0 to 100, 0 no effect, 100 complete control
[19] = Postemergence, 250 g ai/ha, scale 0 to 100

With `CCOC(=O)C(Cl)c1nc(C2CC2)nc(N)c1Br` (stereo not drawn) [Compound 31] the “Plant response rating, Surinam Grass” value [1, 13] was 0, the “Plant response rating, Surinam Grass” value [1, 14] was 0 and the “Plant response rating, Surinam Grass” value [1, 15] was 0. The “Plant response rating, Surinam Grass” value [1, 16] was 0, the “Plant response rating, Bermudagrass” value [2, 13] was 0 and the “Plant response rating, Bermudagrass” value [2, 14] was 0. The “Plant response rating, Bermudagrass” value [2, 15] was 0, the “Plant response rating, Bermudagrass” value [2, 16] was 0 and the “Plant response rating, Cocklebur” value [3, 13] was 0. The “Plant response rating, Cocklebur” value [3, 14] was 60, the “Plant response rating, Cocklebur” value [3, 15] was 75 and the “Plant response rating, Cocklebur” value [3, 16] was 85. For the same compound, the “Plant response rating, Sunflower” value [4, 17] was 0, the “Plant response rating, Sunflower” value [4, 18] was 0 and the “Plant response rating, Sunflower” value ([4]; 125 g ai/ha, scale 0 to 100) was 5. For the same compound, the “Plant response rating, Sunflower” value ([4]; 250 g ai/ha, scale 0 to 100) was 70, the “Plant response rating, Ragweed” value [5, 13] was 5 and the “Plant response rating, Ragweed” value [5, 14] was 10. For the same compound, the “Plant response rating, Ragweed” value [5, 15] was 60, the “Plant response rating, Ragweed” value [5, 16] was 60 and the “Plant response rating, Corn” value [6, 13] was 0. The “Plant response rating, Corn” value [6, 14] was 0, the “Plant response rating, Corn” value [6, 15] was 0 and the “Plant response rating, Corn” value [6, 16] was 0. For the same compound, the “Plant response rating, Nightshade” value [7, 17] was 0, the “Plant response rating, Nightshade” value [7, 18] was 0 and the “Plant response rating, Nightshade” value ([7]; 125 g ai/ha, scale 0 to 100) was 0. The “Plant response rating, Johnsongrass” value [8, 13] was 0, the “Plant response rating, Johnsongrass” value [8, 14] was 0 and the “Plant response rating, Johnsongrass” value [8, 15] was 0. The “Plant response rating, Johnsongrass” value [8, 16] was 5, the “Plant response rating, Kochia” value [9, 13] was 0 and the “Plant response rating, Kochia” value [9, 14] was 0. For the same compound, the “Plant response rating, Kochia” value [9, 15] was 50, the “Plant response rating, Kochia” value [9, 16] was 70 and the “Plant response rating, Morningglory” value [10, 13] was 0. For the same compound, the “Plant response rating, Morningglory” value [10, 14] was 0, the “Plant response rating, Morningglory” value [10, 15] was 10 and the “Plant response rating, Morningglory” value [10, 16] was 50. The “Plant response rating, Pigweed” value [11, 13] was 10, the “Plant response rating, Pigweed” value [11, 14] was 30 and the “Plant response rating, Pigweed” value [11, 15] was 35. For the same compound, the “Plant response rating, Pigweed” value [11, 16] was 40, the “Plant response rating, Cupgrass, Woolly” value [12, 13] was 0 and the “Plant response rating, Cupgrass, Woolly” value [12, 14] was 0. For the same compound, the “Plant response rating, Cupgrass, Woolly” value [12, 15] was 0 and the “Plant response rating, Cupgrass, Woolly” value [12, 16] was 0.

In the case of `CCCCOC(=O)c1nc(C2CC2)nc(N)c1Br` [Compound 16], the “Plant response rating (scale of 0 to 100), Surinam Grass” value ([1]; Postemergence, 31 g ai/ha) is reported as 0, the “Surinam Grass plant response rating” value ([1]; Postemergence, 62 g ai/ha) is reported as 0 and the “Surinam Grass plant response rating” value ([1]; Postemergence, 125 g ai/ha) is reported as 25. The “Plant response rating, Surinam Grass” value [1, 19] was 55, the “Plant response rating, Surinam Grass” value [1, 13] was 0 and the “Plant response rating, Surinam Grass” value [1, 14] was 0. For the same compound, the “Plant response rating, Surinam Grass” value [1, 15] was 15, the “Plant response rating, Surinam Grass” value [1, 16] was 80 and the “Plant response rating (scale of 0 to 100), Bermudagrass” value ([2]; Postemergence, 31 g ai/ha) was 0. For the same compound, the “Bermudagrass plant response rating” value ([2]; Postemergence, 62 g ai/ha, scale 0 to 100 (0 no effect, 100 complete control)) was 0, the “Plant response rating, Bermudagrass” value [2, 19] was 75 and the “Plant response rating, Bermudagrass” value ([2]; Postemergence, 125 g ai/ha, scale 0 to 100) was 60. For the same compound, the “Plant response rating, Bermudagrass” value [2, 13] was 0, the “Plant response rating, Bermudagrass” value [2, 14] was 0 and the “Plant response rating, Bermudagrass” value [2, 15] was 0. For the same compound, the “Plant response rating, Bermudagrass” value [2, 16] was 0, the “Plant response rating (scale of 0 to 100), Cocklebur” value ([3]; Postemergence, 31 g ai/ha) was 75 and the “Cocklebur plant response rating” value ([3]; Postemergence, 62 g ai/ha) was 95. For the same compound, the “Cocklebur plant response rating” value ([3]; Postemergence, 125 g ai/ha) was 100, the “Plant response rating, Cocklebur” value [3, 19] was 100 and the “Plant response rating, Cocklebur” value [3, 13] was 45. The “Plant response rating, Cocklebur” value [3, 14] was 95, the “Plant response rating, Cocklebur” value [3, 15] was 95 and the “Plant response rating, Cocklebur” value [3, 16] was 100. For the same compound, the “Plant response rating, Sunflower” value [4, 17] was 20, the “Plant response rating, Sunflower” value [4, 18] was 85 and the “Plant response rating, Sunflower” value ([4]; 125 g ai/ha, scale 0 to 100) was 100. For the same compound, the “Plant response rating, Sunflower” value ([4]; 250 g ai/ha, scale 0 to 100) was 100, the “Plant response rating (scale of 0 to 100), Ragweed” value ([5]; Postemergence, 31 g ai/ha) was 60 and the “Ragweed plant response rating” value ([5]; Postemergence, 62 g ai/ha) was 85. The “Ragweed plant response rating” value ([5]; Postemergence, 125 g ai/ha) was 95, the “Plant response rating, Ragweed” value [5, 19] was 95 and the “Plant response rating, Ragweed” value [5, 13] was 45. The “Plant response rating, Ragweed” value [5, 14] was 90, the “Plant response rating, Ragweed” value [5, 15] was 95 and the “Plant response rating, Ragweed” value [5, 16] was 100. For the same compound, the “Plant response rating (scale of 0 to 100), Corn” value ([6]; Postemergence, 31 g ai/ha) was 0, the “Corn plant response rating” value ([6]; Postemergence, 62 g ai/ha) was 0 and the “Corn plant response rating” value ([6]; Postemergence, 125 g ai/ha) was 20. The “Plant response rating, Corn” value [6, 19] was 55, the “Plant response rating, Corn” value [6, 13] was 0 and the “Plant response rating, Corn” value [6, 14] was 15. For the same compound, the “Plant response rating, Corn” value [6, 15] was 20, the “Plant response rating, Corn” value [6, 16] was 75 and the “Plant response rating, Nightshade” value [7, 17] was 55. The “Plant response rating, Nightshade” value [7, 18] was 90, the “Plant response rating, Nightshade” value ([7]; 125 g ai/ha, scale 0 to 100) was 95 and the “Plant response rating, Nightshade” value ([7]; 250 g ai/ha, scale 0 to 100) was 100. For the same compound, the “Plant response rating (scale of 0 to 100), Johnsongrass” value ([8]; Postemergence, 31 g ai/ha) was 0, the “Johnsongrass plant response rating” value ([8]; Postemergence, 62 g ai/ha) was 0 and the “Johnsongrass plant response rating” value ([8]; Postemergence, 125 g ai/ha) was 60. The “Plant response rating, Johnsongrass” value [8, 19] was 70, the “Plant response rating, Johnsongrass” value [8, 13] was 0 and the “Plant response rating, Johnsongrass” value [8, 14] was 40. The “Plant response rating, Johnsongrass” value [8, 15] was 65, the “Plant response rating, Johnsongrass” value [8, 16] was 80 and the “Plant response rating (scale of 0 to 100), Kochia” value ([9]; Postemergence, 31 g ai/ha) was 95. The “Kochia plant response rating” value ([9]; Postemergence, 62 g ai/ha) was 100, the “Kochia plant response rating” value ([9]; Postemergence, 125 g ai/ha) was 100 and the “Plant response rating, Kochia” value [9, 19] was 100. For the same compound, the “Plant response rating, Kochia” value [9, 13] was 90, the “Plant response rating, Kochia” value [9, 14] was 95 and the “Plant response rating, Kochia” value [9, 15] was 100. For the same compound, the “Plant response rating, Kochia” value [9, 16] was 100, the “Plant response rating (scale of 0 to 100), Morningglory” value ([10]; Postemergence, 31 g ai/ha) was 85 and the “Morningglory plant response rating” value ([10]; Postemergence, 62 g ai/ha) was 95. The “Morningglory plant response rating” value ([10]; Postemergence, 125 g ai/ha) was 100, the “Plant response rating, Morningglory” value [10, 19] was 100 and the “Plant response rating, Morningglory” value [10, 13] was 65. For the same compound, the “Plant response rating, Morningglory” value [10, 14] was 95, the “Plant response rating, Morningglory” value [10, 15] was 100 and the “Plant response rating, Morningglory” value [10, 16] was 100. The “Plant response rating (scale of 0 to 100), Pigweed” value ([11]; Postemergence, 31 g ai/ha) was 85, the “Pigweed plant response rating” value ([11]; Postemergence, 62 g ai/ha) was 90 and the “Pigweed plant response rating” value ([11]; Postemergence, 125 g ai/ha) was 95. The “Plant response rating, Pigweed” value [11, 19] was 95, the “Plant response rating, Pigweed” value [11, 13] was 85 and the “Plant response rating, Pigweed” value [11, 14] was 95. The “Plant response rating, Pigweed” value [11, 15] was 100, the “Plant response rating, Pigweed” value [11, 16] was 100 and the “Plant response rating (scale of 0 to 100), Cupgrass, Woolly” value ([12]; Postemergence, 31 g ai/ha) was 0. The “Cupgrass, Woolly plant response rating” value ([12]; Postemergence, 62 g ai/ha) was 0, the “Cupgrass, Woolly plant response rating” value ([12]; Postemergence, 125 g ai/ha) was 0 and the “Plant response rating, Cupgrass, Woolly” value [12, 19] was 65. For the same compound, the “Plant response rating, Cupgrass, Woolly” value [12, 13] was 0, the “Plant response rating, Cupgrass, Woolly” value [12, 14] was 0 and the “Plant response rating, Cupgrass, Woolly” value [12, 15] was 15. For the same compound, the “Plant response rating, Cupgrass, Woolly” value [12, 16] was 65.
